No end group written: not given here.
Experiments:
[1] = tested on: heterotopic xenograft flank U87 tumor implants; test: In vivo fluorescence imaging of heterotopic xenograft U87 flank tumors; conditions: mice with U87 flank tumors; fluorophore-conjugated peptide injected via tail vein; FIG. 1/FIG. 2
Experimental: (§1) The human U87-MG and LN-229 glioma cell line was purchased from American Type Culture Collection (Manassas, Va., USA) and cultured. NIH athymic nude mice (5-8 weeks and 20-25 g on arrival; NCI-NIH) were maintained at the Athymic Animal Core Facility at Case Western Reserve University according to institutional policies. All animal protocols were approved by the Institutional Animal Care and Use Committee (IACUC). The cells were diluted in a 1:1 mixture of PBS and BD MATRIGEL Matrix (BD Biosciences, Franklin Lakes, N.J., USA), and injected into the right flank of nude athymic mice (NCr-nu/+, NCr-nu/nu, 20-25 g each). The Matrigel-cell mixture was loaded into a 1-ml syringe fitted with a 26-gauge needle and kept on ice. The mixture was injected subcutaneously in the right flank region of the mouse. Flank tumors were grown for 2 to 3 weeks. Each flank was implanted with 1.4-2×10^6 cells. To correlate tumor position with GFP fluorescence, mice were imaged using the Perkin-Elmer MAESTRO FLEX In vivo Imaging System. For in vivo analyses, the mice were anesthetized with inhaled isoflurane/oxygen and imaged. For ex vivo analyses, mice were sacrificed by decapitation. […]
(§2) Nude mice with heterotopic (flank) tumors were typically imaged 3 to 6 weeks following tumor initiation. […] Average radiant intensity units, calculated by the LivingImage software, were obtained for each ROI. […]

[2] = tested on: heterotopic xenograft flank U87 tumor implants overexpressing PTPmu; test: In vivo fluorescence imaging of heterotopic xenograft U87 flank tumors overexpressing PTPmu; conditions: mice with U87 flank tumors overexpressing PTPmu; FIG. 2
Experimental: as §1, §2

Substance | in vivo average radiant efficiency [1] | in vivo average radiant efficiency [2]
Peptide 2: SBK linked to a fluorophore with a polyglycine peptide spacer (GEGDDFNWEQVNTLTKPTSD; also: fluorophore linked via polyglycine spacer, not defined) | increased average radiant efficiency compared to the first agent, without a spacer, and the control agent | –
Peptide 3: SBK linked to a fluorophore with a glycine/serine spacer (GEGDDFNWEQVNTLTKPTSD; also: fluorophore linked via glycine/serine spacer, not defined) | increased average radiant efficiency compared to the second agent | increased average radiant efficiency compared to the second agent

Source: patent publication US20230285606A1, “METHODS AND AGENTS FOR THE DETECTION AND TREATMENT OF CANCER” (CASE WESTERN RESERVE UNIVERSITY, priority 2020, published 2023)
